Data published in publication PMC4109680, “Identification and Preclinical Pharmacology of the γ-Secretase Modulator BMS-869780” (International Journal of Alzheimer's Disease, 2014).

How the values were obtained:
[1] = Rat time course PK/PD, oral dose, indirect response model; assay type: in vivo; conditions: female, Sprague-Dawley, plasma
Method: Figure 8 Analysis of the PK/PD relationship for BMS-869780 in rats and mice. Rats were dosed orally with BMS-869780 at 10 mg/kg, and triple transgenic mice were orally dosed at 30 mg/kg and 100 mg/kg. Additional groups of rats and mice were dosed with vehicle alone. Brain and plasma were harvested at 3, 5, 8, 16, and 24 hours after dosing for determination of brain Aβ1-42 and plasma BMS-869780 concentration. Group sizes were 5 rats or 4 mice. Whiskers represent standard error. […] The data were fit to a one-compartment PK model and the predicted plasma BMS-869780 concentrations are shown for mouse (solid lines) and rat (broken line). […] The data were fitted using the indirect pharmacodynamic response model and predicted values are shown (solid lines). (c) Brain Aβ1-42 levels were determined for the rats dosed with BMS-869780 at 10 mg/kg (▼) or vehicle alone (●). The data were fitted using the indirect pharmacodynamic response model and predicted values are shown (dashed line). (d) Brain Aβ1-40 levels determined in the same rats as illustrated in (c).
All experimental procedures with animals followed National Institutes of Health guidelines and were authorized by and in compliance with policies of the Bristol-Myers Squibb Animal Use and Care Committee. Mice and rats were housed with a 6:00 AM to 6:00 PM light/dark cycle and allowed free access to food and water. For 3xTg mice, BMS-869780 was dosed in three-month-old females by oral gavage at 6 mL/kg in vehicle consisting of 84% polyethylene glycol average molecular weight of 400 (PEG-400), 15% EtOH, and 1% Tween-80 (w/w/w). The compound was dissolved in EtOH and then diluted with PEG-400 and Tween, after which the vial was sealed, vortexed, and sonicated at 56°C for 1 hour. Animals were euthanized by asphyxiation in CO2. Blood was collected by cardiac puncture and placed into ethylene-diaminetetraacetic acid microtainer tubes for the preparation of plasma. The cerebellum was collected for the determination of compound concentration, and the remaining brain was separated into left and right halves before freezing in liquid nitrogen. For the rat time course study, 8- to 12-week-old female Sprague-Dawley rats were obtained from Charles River Laboratories (Wilmington, MA), BMS-869780 was dosed orally at 4 mL/kg, and brain and plasma samples were collected as described for the 3xTg mice. For the four day repeat dose rat study, BMS-869780 was given by oral gavage in vehicle consisting of PEG-400, PEG-200, D-α-tocopheryl polyethylene glycol succinate, Solutol HS 15, in the ratio 80 : 10 : 5 : 5 (w/w/w/w). Methods for the pharmacokinetics studies in rat, dog, and monkey are described below.
The data generated in the mouse and rat time course experiments were analyzed sequentially by nonlinear regression (WinNonlin Pharsight Corporation, Mountain View, CA). The pharmacokinetic data were best described by a 1-compartment linear model with first-order absorption and elimination. Subsequently, the pharmacodynamic parameters were estimated from the BMS-869780 plasma concentrations and the observed reductions of brain Aβ1-42 or Aβ1-40 by fitting to the equation for inhibition of synthesis. The goodness-of-fit was determined by visual inspection, Akaike Information Criterion, Schwartz Criterion, examination of the residuals and the coefficient of variation of the parameter estimates.

[2] = test system: Aβ1-40 (MEF PS1wt); test: Aβ1-40 ELISA in MEF dKO cultures cotransfected with APP-CTF and human presenilin-1 wild type; assay type: cell-based; conditions: wild type human presenilin-1
Method: H4-APPsw cell cultures were maintained on Dulbecco's modified Eagle's medium (DMEM) supplemented with L-glutamine (2 mM), fetal bovine serum (10%), and G418 (100 μg/mL). […] Aβ1-42 and Aβ1-40 assays, and Notch inhibition assays, were carried out as described previously. Mouse embryonic fibroblasts deficient in PS1 and PS2 (MEF dKO) were passaged twice per week in DMEM/F-12 medium, consisting of a 1 : 1 mixture of DMEM and F-12 nutrient mixture supplemented with 10% fetal bovine serum, penicillin, and streptomycin. For expression of human presenilin-1 in MEF dKO cells, the full length human presenilin-1 cDNA open reading frame was cloned between the BamHI and XhoI sites of the vector pcDNA5/FRT (Invitrogen), placing presenilin-1 expression under the control of the CMV promoter. […]
IC50 determinations for Aβ1-42 and Aβ1-40 in H4-APPsw cultures in 384-well format were determined using homogeneous time-resolved fluorescence immunoassays as previously described. […] In other experiments using H4-APPsw cultures, Aβ was quantified by ELISA; for Aβ1-42 the combination of monoclonal antibodies was 26D6 and 565-HRP; for Aβ1-40 it was TSD and 26D6-HRP, and for Aβ1-x it was 4G8 and 26D6-HRP. […] For Aβ in transiently transfected PS1/PS2 dKO fibroblasts, Aβ1-42 was quantified using an ELISA kit (WACO), and Aβ1-40 was quantified by ELISA as described above for H4-APPsw cultures. […]

What does the source list for `COc1cc(Nc2nc3n(n2)CCCC[C@H]3c2ccc(F)cc2)ccc1-n1cnc(Cl)c1` [BMS-869780]?
k el ([1]; oral, 10 mg/kg, rat, 1-compartment PK model): 2.78e-05 s⁻¹; AUC(0-t) ([1]; Rat 10 mg/kg PO solution (observed 0–24 hours)): 46.3 µM·h; IC50 [2]: 11 nM
